≈ marks a conversion by molar mass, not a printed value. Read-outs that look alike come from different tables or passages of the source. *1 amine or outer side, *2 acyl side, *3 side chain or, on linkers, in order; H or OH if unused. Where a SMILES comes first, the peptide text is derived from it. Bridges are numbered along the chain shown (N, C = ends). [ ]: non-standard residue; d: D form. The star is where a group is joined. ξ: configuration not given here. X6 = CCc1c2c(nc3ccc(OC(=O)OCc4ccc(NC(=O)[C@H](CCCNC(N)=O)NC(=O)[C@@H](NC(=O)COCC(=O)*)C(C)C)cc4)cc13)-c1cc3c(c(=O)n1C2)COC(=O)[C@]3(O)CC; X3 = CCc1c2c(nc3ccc(O)cc13)-c1cc3c(c(=O)n1C2)COC(=O)[C@@]3(CC)OC(=O)CCCCn1cc(CCCC(=O)NCCCOCCOCCOCCSCN*)nn1; X2 = CCc1c2c(nc3ccc(O)cc13)-c1cc3c(c(=O)n1C2)COC(=O)[C@@]3(CC)OC(=O)CCC(=O)*; X7 = CCc1c2c(nc3ccc(OC(=O)*)cc13)-c1cc3c(c(=O)n1C2)COC(=O)[C@]3(O)CC; X4 = CC(O)CC(N[*:1])C(=O)[*:2]; Suc = O=C(CCC(=O)[*:2])[*:1]; Nva = CCC[C@H](N)C(=O)O; ξE = NC(CCC(=O)O)C(=O)O; Dap = NC[C@H](N)C(=O)O; ξN = NC(=O)CC(N)C(=O)O; ξK = NCCCCC(N)C(=O)O; ξT = CC(O)C(N)C(=O)O; ξDap = NCC(N)C(=O)O; ξP = O=C(O)C1CCCN1; ξA = CC(N)C(=O)O

In general, solubility refers to the dissolved amount per volume that the medium holds. A word on the IC50: it is the concentration at which inhibition is half-maximal. Usually half-life stands for the time needed for the level to fall by half in the phase considered. Read a high half-life as slow decline.

Data set [1] can be described thus: Turbidimetric aqueous solubility. The format is physicochemical. Particulars: 37 °C, pH 7.4, aqueous buffer, kinetic from dmso stock, Turbidity aqueous solubility, Estimated precipitation range. As for the experimental part:
Each test compound concentration was then further diluted 1 in 100 in buffer (0.01 M phosphate buffered saline pH 7.4) so that the final DMSO concentration was 1% and the final test compound concentrations were 1, 3, 10, 30 and 100 μM. The experiment was performed at 37° C. and each concentration was incubated in 7 replicate wells. The plates were incubated for 2 hr at 37° C. before the absorbance was measured at 620 nm.

Data set [2] relates to pediatric high-grade glioma HSJD-GBM-001. The experiment in a line: cells. The data set is classed as cell-based. The conditions noted are these: MTS, 72 h incubation, Example 11, Table 4, read-out: IC50 values of compounds. An excerpt:
(§1) Cancer cell lines were obtained from the repository maintained at Hospital Sant Joan de Deu (Barcelona, Spain). Cancer cell lines used in these experiment included cancer types of adult glioma (U373 and U87 cell lines), pediatric gliomas including diffuse intrinsic pontine glioma (HSJD-DIPG-007, HSJD-DIPG-011), and pediatric high-grade glioma (HSJD-GBM-001), retinoblastoma (HSJD-RBT-5, HSJD-RBT-7 and HSJD-RBT-14), Ewing sarcoma (A673), rhabdomyosarcoma (Rd and RH4) and neuroblastoma (LAN-1 and SK-N-JD cell lines and HSJD-NB-004, HSJD-NB-005 and HSJD-NB-016 patient-derived cell models). Briefly, between 3000 and 30,000 cancer cells were cultured in 96 well plates and 24 h later the cells were exposed to compound SN38-linker A-MiniAp4 (Ia) (concentration range 1-0.00000001 μM), SN38 (concentration range 1-0.00000001 μM), or irinotecan (concentration range 100-0,000001 μM). To add the drugs to the cells in culture, SN38-linker A-MiniAp4 (Ia) and irinotecan were prepared in culture medium from stock solutions at concentration 1 mg/mL in water. SN38 was prepared in culture medium from a stock solution at concentration 1 mg/mL in DMSO. The tetrazolium compound [3-(4,5-dimethylthiazol-2-yl)-5-(3-carboxymethoxyphenyl)-2-(4-sulfophenyl)-2H-tetrazolium] (MTS assay; Promega, Fitchburg, WI) was used to determine cell viability after 72 h incubation with the drugs. The concentrations of drug required to cause a reduction of 50% in cell proliferation (IC50 and 95% confidence intervals) were calculated with Graphpad Prism 8 software (La Jolla, CA). Activity curves were built for adult glioma cell lines U87 (FIG. 1) and U373 (FIG. 2), pediatric gliomas including DIPG models HSJD-DIPG-007 (FIG. 3) and HSJD-DIPG-011 (FIG. 4), and pediatric high-grade glioma model HSJD-GBM-001 (FIG. 5), retinoblastoma models HSJD-RBT-5 (FIG. 6), HSJD-RBT-7 (FIG. 7) and HSJD-RBT-14 (FIG. 8), Ewing sarcoma cell line A673 (FIG. 9), rhabdomyosarcoma cell lines Rd (FIG. 10) and RH4 (FIG. 11), neuroblastoma cell lines LAN-1 (FIG. 12) and SK-N-JD (FIG. 13) and neuroblastoma patient-derived cell models HSJD-NB-004 (FIG. 14), HSJD-NB-005 (FIG. 15) and HSJD-NB-016 (FIG. 16). The established IC50 values are in Table 3.
The present inventors compared the activity of the new compound SN38 conjugated with MiniAp4 (SN38-linkerA-MiniAp4, example 7 also named G2B-001) and with SN38-linker B-THRre (comparative example 2). Original compound SN38 was used as reference. Cancer cell lines used in these experiments were pediatric gliomas including diffuse intrinsic pontine glioma HSJD-DIPG-007, and pediatric high-grade glioma HSJD-GBM-001. Briefly, 3000 cancer cells were cultured in 96 well plates and 24 h later the cells were exposed to compound compound (Ia) (concentration range 1-0.00000001 μM), SN38-Linker B-THRre (concentration range 1-0.00000001 μM), and SN38 (concentration range 1-0.00000001 μM). To add the drugs to the cells in culture, SN38-Linker A-MiniAp4 (Ia) and SN38-Linker B-THRre were prepared in culture medium from stock solutions at concentration 1 mg/mL in water. SN38 was prepared in culture medium from a stock solution at concentration 1 mg/mL in DMSO. The MTS assay was used to determine cell viability after 72 h incubation with the drugs. The concentrations of drug required to cause a reduction of 50% in cell proliferation (IC50 and 95% confidence intervals) were calculated with Graphpad Prism 8 software (La Jolla, CA). Activity curves were built for cells HSJD-DIPG-007 (FIG. 20) and HSJD-GBM-001 (FIG. 21). The established IC50 values are in Table 4.
Cancer cell lines used in these experiments were pediatric gliomas including diffuse intrinsic pontine glioma HSJD-DIPG-007, and pediatric high-grade glioma HSJD-GBM-001. Briefly, 3000 cancer cells were cultured in 96 well plates and 24 h later the cells were exposed to compounds (Ia), comparative example 1 and comparative example 2 (concentration range 1-0.001 μM for each of them). […]

The subject of data set [3] is diffuse intrinsic pontine glioma HSJD-DIPG-007. The data set is described as follows: cells. Particulars: HSJD-DIPG-007, MTS, 72 h incubation.
Excerpt: as §1, with “Briefly, between 3000 and 30,000 cancer cells were cultured in 96 well plates and 24 h later the cells were exposed to compound SN38-linker A-MiniAp4 (Ia) (concentration range 1-0.00000001 μM), SN38 (concentration range 1-0.00000001 μM), or irinotecan (concentration range 100-0,000001 μM).” left out, “The tetrazolium compound [3-(4,5-dimethylthiazol-2-yl)-5-(3-carboxymethoxyphenyl)-2-(4-sulfophenyl)-2H-tetrazolium] (MTS assay; Promega, Fitchburg, WI) was used to determine cell viability after 72 h incubation with the drugs. The concentrations of drug required to cause a reduction of 50% in cell proliferation (IC50 and 95% confidence intervals) were calculated with Graphpad Prism 8 software (La Jolla, CA).” left out
Cancer cell lines used in these experiments were pediatric gliomas including diffuse intrinsic pontine glioma HSJD-DIPG-007, and pediatric high-grade glioma HSJD-GBM-001. […] To add the drugs to the cells in culture, SN38-Linker A-MiniAp4 (Ia) and SN38-Linker B-THRre were prepared in culture medium from stock solutions at concentration 1 mg/mL in water. SN38 was prepared in culture medium from a stock solution at concentration 1 mg/mL in DMSO. […] Activity curves were built for cells HSJD-DIPG-007 (FIG. 20) and HSJD-GBM-001 (FIG. 21).
Cancer cell lines used in these experiments were pediatric gliomas including diffuse intrinsic pontine glioma HSJD-DIPG-007, and pediatric high-grade glioma HSJD-GBM-001. […] All compounds were prepared in culture medium from stock solutions at concentration 1 mg/mL in water. […] Activity curves were built for cells HSJD-DIPG-007 (FIG. 22) and HSJD-GBM-001 (FIG. 23).
Cancer cell line used in these experiment was HSJD-DIPG-007.

Data set [4] in a line: Evaluation of solubility in water. The data set is classed as physicochemical. The conditions noted are these: at 1 mg/mL. The protocol: 25 mg of SN38-linker A-MiniAp4 were dissolved in H2O, showing a completely transparent solution. This means that SN38-linker A-MiniAp4 has a solubility in water higher than 5 mg/mL, more than 400-fold the solubility in water described for SN38 (Mol. Pharmaceutics, 2016, 13, 379-390).

The nature of data set [5]: Stability in human plasma at 37° C. in vitro. The format is in vitro ADME. The protocol: To assess the stability of the SN38-linker A-MiniAp4 (Ia) (example 7) in human, mouse, dog and rat plasma at 37° C., the compound was prepared at 200 μM in plasma samples in triplicates at each timepoint (0 h, 1 h, 4 h, 8 h and 24 h) for each species. Once the incubation was finalised, plasma proteins were immediately precipitated by adding chilly methanol (ratio 4:1, methanol:plasma) and tubes were shacked for few seconds (vortex). Samples were centrifuged at 3,000 rpm for 30 minutes at 4° C., supernatants were collected, transferred to the injection plate and injected to LC-MS system.
Compound recovery was determined by comparing the analyte response in a biological sample that is spiked with the analyte and processed, with the response in a methanol sample that is spiked with the analyte and processed.
Plasma stability assay was performed using blank plasma from untreated volunteers/animals. K2-EDTA was used as anticoagulant. Human blank plasma used was obtained from Hospital Sant Pau, mouse blank plasma used was obtained from Janvier, dog blank plasma used was obtained from Isoquimen and rat blank plasma used were obtained from Draconis Pharma.
To assess the stability of the G2B-001 lineal (Ib) (example 16) in human plasma at 37° C., the compound was prepared at 200 µM in plasma samples in triplicates at each timepoint (0 h, 0.5 h, 1 h, 2 h, 4 h, 8 h and 24 h). Once the incubation was finalised, plasma proteins were immediately precipitated by adding chilly methanol (ratio 4:1, methanol:plasma) and tubes were shacked for few seconds (vortex). Samples were centrifuged at 3,000 rpm for 30 minutes at 4° C., supernatants were collected, transferred to the injection plate and injected to LC-MS system. Compound recovery was determined by comparing the analyte response in a biological sample that is spiked with the analyte and processed, with the response in a methanol sample that is spiked with the analyte and processed.
Plasma stability assay was performed using blank plasma from untreated volunteers. K2-EDTA was used as anticoagulant. Human blank plasma used was obtained from Hospital Sant Pau.

As for `COC(=O)C1=C(C)NC(C)=C(C(=O)OCCN(C)Cc2ccccc2)C1c1cccc([N+](=O)[O-])c1` (centres unmarked) [Nicardipine, reference compound], the solubility at 2 h is 11.5 µM (≈ 5.51 µg/mL) in data set [1] (Calculated mid-range), 3 µM (≈ 1.44 µg/mL) in data set [1] (Lower bond) and 20 µM (≈ 9.59 µg/mL) in data set [1] (Upper bond).
For `CCc1c2c(nc3ccc(O)cc13)-c1cc3c(c(=O)n1C2)COC(=O)[C@@]3(CC)OC(=O)CCC(=O)N1CCC[C@@H]1C(=O)N[C@H](Cc1c[nH]c2ccccc12)C(=O)N[C@@H](C(=O)N1CCC[C@@H]1C(=O)N[C@H](CO)C(=O)N[C@H](Cc1c[nH]c2ccccc12)C(=O)N[C@H](CCSC)C(=O)N1CCC[C@@H]1C(=O)N1CCC[C@@H]1C(=O)N[C@H](CCCNC(=N)N)C(=O)N[C@H](Cc1c[nH]cn1)C(=O)N[C@@H](C(N)=O)[C@H](C)O)C(C)C` [Comparative Example 2, reference compound] (X2-[dP][dW][dV][dP][dS][dW][dM][dP][dP][dR][dH][dT]-NH2; N-terminus and C-terminus assumed), the IC50 in data set [2] was 60.6 nM; in data set [3] (read-out: IC50 values of compounds, Example 11, Table 4), 104 nM.
With `CCc1c2c(nc3ccc(O)cc13)-c1cc3c(c(=O)n1C2)COC(=O)[C@@]3(CC)OC(=O)CCCCn1cc(CCCC(=O)NCCCOCCOCCOCCSCNC(=O)CCC(=O)NC(CN)C(=O)NC(CCCCN)C(=O)NC(C)C(=O)N2CCCC2C(=O)NC(CCC(=O)O)C(=O)NC(C(=O)NC(C)C(=O)NC(CC(C)O)C(=O)NC(CC(N)=O)C(N)=O)C(C)O)nn1` (some centres unmarked) [G2B-001 lineal (Ib)] ({X3-Suc}-[ξDap][ξK][ξA][ξP][ξE][ξT][ξA][X4][ξN]-NH2), the IC50 in data set [3] (read-out: IC50 values, Example 25, Table 8) came out at 36.8 nM. Further, the solubility in water result in data set [4] was “good solubility”. The molecule further came in with a half-life at 200 μM in data set [5] of more than 24 h. For the same molecule, in data set [5] (24 h, read-out: % Recovery after 24 h in human plasma), the recovery at 24 h, 200 μM came out at 69.9%.
As for `CCC[C@H](NC(=O)CNC(=O)Oc1ccc2nc3c(c(CC)c2c1)Cn1c-3cc2c(c1=O)COC(=O)[C@]2(O)CC)C(=O)N1CCC[C@H]1C(=O)NCC(=O)N[C@H]1CNC(=O)C[C@@H](C(N)=O)NC(=O)[C@H](CC(C)C)NC(=O)[C@H](C)NC(=O)[C@H]([C@@H](C)O)NC(=O)[C@H](CCC(=O)O)NC(=O)[C@@H]2CCCN2C(=O)[C@H](C)NC(=O)[C@H](CCCCN)NC1=O` [G2B-005 (Ie)] (X7-G[Nva]PG[Dap]KAPETALD-NH2; lactam 5-13), the solubility in water entry in data set [4] was “good solubility”.
Regarding `CCc1c2c(nc3ccc(OC(=O)OCc4ccc(NC(=O)[C@H](CCCNC(N)=O)NC(=O)[C@@H](NC(=O)COCC(=O)N[C@H]5CNC(=O)C[C@@H](C(N)=O)NC(=O)[C@H](CC(C)C)NC(=O)[C@H](C)NC(=O)[C@H]([C@@H](C)O)NC(=O)[C@H](CCC(=O)O)NC(=O)[C@@H]6CCCN6C(=O)[C@H](C)NC(=O)[C@H](CCCCN)NC5=O)C(C)C)cc4)cc13)-c1cc3c(c(=O)n1C2)COC(=O)[C@]3(O)CC` [G2B-004 (Id)] (X6-[Dap]KAPETALD-NH2; lactam 1-9), in data set [4], the solubility in water entry is reported as “good solubility”.
